# ChEMBL document CHEMBL1201862, “PubChem BioAssay data set” (2004)
#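 Each compound was tested at five concentrations against cells in 96-well plates for 48 hours. GI50 marks 50% less growth.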 Calls of active or inactive are those of the source. No stated cut-off is given here; in the data, active = GI50 up to about 1.1 µM and inactive = higher.
# Tests used:
# Experiment in all cases: NCI tumour cell line growth inhibition, 48 h
# A549 = system: A549
# COLO 205 = system: COLO 205
# HCT-116 = system: HCT-116
# HOP-62 = system: HOP-62
# HT-29 = system: HT-29
# LOX IMVI = system: LOX IMVI
# MCF7 = system: MCF7
# NCI-H23 = system: NCI-H23
# NCI-H522 = system: NCI-H522
# NCI/ADR-RES = system: NCI/ADR-RES
# OVCAR-4 = system: OVCAR-4
# OVCAR-8 = system: OVCAR-8
# SF-295 = system: SF-295
# SK-MEL-28 = system: SK-MEL-28
# SK-MEL-2 = system: SK-MEL-2
# SK-MEL-5 = system: SK-MEL-5
# SNB-75 = system: SNB-75
# TK-10 = system: TK-10
# UACC-257 = system: UACC-257
# UACC-62 = system: UACC-62
SMILES,GI50 (A549),GI50 (COLO 205),GI50 (HCT-116),GI50 (HOP-62),GI50 (HT-29),GI50 (LOX IMVI),GI50 (MCF7),GI50 (NCI-H23),GI50 (NCI-H522),GI50 (NCI/ADR-RES),GI50 (OVCAR-4),GI50 (OVCAR-8),GI50 (SF-295),GI50 (SK-MEL-28),GI50 (SK-MEL-2),GI50 (SK-MEL-5),GI50 (SNB-75),GI50 (TK-10),GI50 (UACC-257),GI50 (UACC-62)
COc1ccc(C(=C2C=CC=C2)c2ccc(OC)cc2)cc1,44.9 µM (inactive),23.7 µM (inactive),26.4 µM (inactive),39.9 µM (inactive),24 µM (inactive),17.2 µM (inactive),13.1 µM (inactive),34.2 µM (inactive),19.3 µM (inactive),47.3 µM (inactive),> 100 µM (inactive),44.5 µM (inactive),16.9 µM (inactive),53.5 µM (inactive),24.8 µM (inactive),30.2 µM (inactive),59 µM (inactive),50.4 µM (inactive),34.4 µM (inactive),33.7 µM (inactive)
C#CCNC(=O)CCC(N)C(=O)O (stereo not drawn),> 100 µM (inactive),> 100 µM (inactive),> 100 µM (inactive),> 100 µM (inactive),> 100 µM (inactive),> 100 µM (inactive),> 100 µM (inactive),> 100 µM (inactive),> 100 µM (inactive),> 100 µM (inactive),> 100 µM (inactive),> 100 µM (inactive),> 100 µM (inactive),> 100 µM (inactive),> 100 µM (inactive),> 100 µM (inactive),> 100 µM (inactive),–,> 100 µM (inactive),> 100 µM (inactive)
C[C@H](N)C(=O)N[C@@H]1[C@H]2C(=C(O)C[C@@H](O)[C@@H]2O)C(=O)O[C@@H]1C,> 100 µM (inactive),> 100 µM (inactive),> 100 µM (inactive),> 100 µM (inactive),> 100 µM (inactive),> 100 µM (inactive),> 100 µM (inactive),> 100 µM (inactive),> 100 µM (inactive),> 100 µM (inactive),> 100 µM (inactive),> 100 µM (inactive),> 100 µM (inactive),> 100 µM (inactive),> 100 µM (inactive),> 100 µM (inactive),> 100 µM (inactive),–,> 100 µM (inactive),> 100 µM (inactive)
COC1=C(C)C(=O)C2=C(C1=O)[C@@H]1[C@@H]3Cc4c(OC(=O)CO)c(C)c(OC)c(O)c4[C@H](CNC(=O)C(C)=O)N3[C@@H](C#N)[C@H](C2)N1C,0.366 µM (active),< 0.0155 µM (active),0.0573 µM (active),0.221 µM (active),0.0182 µM (active),< 0.01 µM (active),0.0332 µM (active),< 0.011 µM (active),< 0.01 µM (active),1.08 µM (active),0.106 µM (active),0.024 µM (active),0.199 µM (active),0.0713 µM (active),< 0.0189 µM (active),0.0154 µM (active),< 0.0353 µM (active),–,< 0.0152 µM (active),< 0.0208 µM (active)
CCOC(=O)C1=C(C)N(c2ccc(Cl)cc2)C2(O)C=CC(Nc3ccc(Cl)cc3)=C3C(=O)N(c4ccccc4)C(=O)C312 (stereo not drawn),3.52 µM (inactive),2.44 µM (inactive),–,1.63 µM (inactive),3.66 µM (inactive),1.67 µM (inactive),2.05 µM (inactive),5.42 µM (inactive),1.34 µM (inactive),2.75 µM (inactive),3.15 µM (inactive),3.64 µM (inactive),3.18 µM (inactive),2.36 µM (inactive),2.58 µM (inactive),2.39 µM (inactive),4.18 µM (inactive),13.6 µM (inactive),13.3 µM (inactive),1.44 µM (inactive)
CC1=Nc2nc(Cl)cn2C(=O)C1(Cl)Cl,> 10 µM (inactive),> 10 µM (inactive),> 10 µM (inactive),> 10 µM (inactive),> 10 µM (inactive),> 10 µM (inactive),> 10 µM (inactive),> 10 µM (inactive),> 10 µM (inactive),> 10 µM (inactive),> 10 µM (inactive),> 10 µM (inactive),> 10 µM (inactive),> 10 µM (inactive),> 10 µM (inactive),> 10 µM (inactive),> 10 µM (inactive),> 10 µM (inactive),–,> 10 µM (inactive)
COc1ccc([C@@H]2ON(C)[C@H]3CN(C)C(=O)[C@@H]23)cc1,> 100 µM (inactive),> 100 µM (inactive),> 100 µM (inactive),> 100 µM (inactive),> 100 µM (inactive),> 100 µM (inactive),> 100 µM (inactive),> 100 µM (inactive),> 100 µM (inactive),> 100 µM (inactive),> 100 µM (inactive),> 100 µM (inactive),> 100 µM (inactive),> 100 µM (inactive),> 100 µM (inactive),> 100 µM (inactive),10.1 µM (inactive),> 100 µM (inactive),> 100 µM (inactive),–
CC12CCC(C(=O)OC1=O)C(C)(C)O2 (stereo not drawn),> 100 µM (inactive),> 100 µM (inactive),> 100 µM (inactive),> 100 µM (inactive),> 100 µM (inactive),> 100 µM (inactive),> 100 µM (inactive),> 100 µM (inactive),> 100 µM (inactive),> 100 µM (inactive),> 100 µM (inactive),> 100 µM (inactive),> 100 µM (inactive),> 100 µM (inactive),> 100 µM (inactive),> 100 µM (inactive),> 100 µM (inactive),> 100 µM (inactive),> 100 µM (inactive),> 100 µM (inactive)
Oc1[nH]c(Nc2cccc(Br)c2)nc2ncnc1-2,> 100 µM (inactive),> 100 µM (inactive),53.8 µM (inactive),–,82.6 µM (inactive),> 100 µM (inactive),> 100 µM (inactive),> 100 µM (inactive),> 100 µM (inactive),> 100 µM (inactive),15.5 µM (inactive),> 100 µM (inactive),> 100 µM (inactive),> 100 µM (inactive),23.6 µM (inactive),> 100 µM (inactive),57.7 µM (inactive),87.1 µM (inactive),> 100 µM (inactive),> 100 µM (inactive)
